IC50 data for 26 molecules are collected here from patent US10034861B2 (priority 2016, dated 2018).

Like-named read-outs stand apart in the source and are kept apart here.

What all share (format): biochemical
The target of one assay is PDE1C (Homo sapiens (Human), UniProt Q14123). The assay is described as follows: biochemical. The settings on record: 15 nM tritium labelled cAMP, 1 hr at room temperature, SPA beads. The text has this:
(§1) Table 1 lists the IC50 value for inhibition of PDE1 by the compounds of the invention. […] PDE1 assays are described in the Experimental Section.

The next assay deals with PDE1A (Homo sapiens (Human), UniProt P54750). The assay is described as follows: biochemical.
Source text: as §1

Another assay addresses PDE1B (Homo sapiens (Human), UniProt Q01064). As to the kind of experiment: PDE1 inhibition assay (PDE1B). The settings on record: 15 nM tritium labelled cAMP, 1 hr at room temperature, SPA beads.
Source text: as §1

Where [1] appears, read: 15 nM tritium labelled cAMP, 1 hr at room temperature, SPA beads.

PDE1C, sequence (Q14123 whole entry): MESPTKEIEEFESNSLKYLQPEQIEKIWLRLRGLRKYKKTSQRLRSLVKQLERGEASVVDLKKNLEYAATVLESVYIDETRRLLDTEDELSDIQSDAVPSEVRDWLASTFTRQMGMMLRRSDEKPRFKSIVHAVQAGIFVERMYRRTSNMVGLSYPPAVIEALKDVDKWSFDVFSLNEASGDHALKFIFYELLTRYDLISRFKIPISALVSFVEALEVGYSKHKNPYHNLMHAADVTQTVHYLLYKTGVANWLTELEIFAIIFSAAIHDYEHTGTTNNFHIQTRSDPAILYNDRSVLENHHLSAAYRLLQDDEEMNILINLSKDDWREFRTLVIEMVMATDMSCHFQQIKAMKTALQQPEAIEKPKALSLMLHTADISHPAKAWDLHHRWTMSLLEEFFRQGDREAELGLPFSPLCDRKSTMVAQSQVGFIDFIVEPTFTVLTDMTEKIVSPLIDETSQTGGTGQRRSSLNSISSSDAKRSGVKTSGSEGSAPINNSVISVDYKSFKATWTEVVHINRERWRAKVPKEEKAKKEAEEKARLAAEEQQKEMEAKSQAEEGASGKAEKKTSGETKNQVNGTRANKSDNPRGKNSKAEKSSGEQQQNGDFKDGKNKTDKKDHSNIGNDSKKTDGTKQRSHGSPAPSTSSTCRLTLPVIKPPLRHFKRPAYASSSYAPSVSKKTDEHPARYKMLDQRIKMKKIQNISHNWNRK
PDE1B, sequence (Q01064 whole entry): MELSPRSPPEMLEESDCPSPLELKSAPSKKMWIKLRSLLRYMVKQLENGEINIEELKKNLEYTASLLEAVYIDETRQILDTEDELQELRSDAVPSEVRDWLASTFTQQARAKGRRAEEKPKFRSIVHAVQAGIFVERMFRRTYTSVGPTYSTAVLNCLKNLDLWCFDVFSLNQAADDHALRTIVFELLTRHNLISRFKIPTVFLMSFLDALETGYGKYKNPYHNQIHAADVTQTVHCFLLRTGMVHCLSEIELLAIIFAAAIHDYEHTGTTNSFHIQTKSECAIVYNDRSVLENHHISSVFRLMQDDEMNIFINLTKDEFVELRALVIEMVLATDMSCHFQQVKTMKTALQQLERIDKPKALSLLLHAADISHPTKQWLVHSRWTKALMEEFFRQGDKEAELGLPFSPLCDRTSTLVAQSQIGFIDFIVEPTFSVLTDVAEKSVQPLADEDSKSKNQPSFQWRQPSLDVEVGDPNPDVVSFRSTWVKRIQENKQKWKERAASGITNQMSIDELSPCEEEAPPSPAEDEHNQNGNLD
PDE1A, sequence (P54750 whole entry): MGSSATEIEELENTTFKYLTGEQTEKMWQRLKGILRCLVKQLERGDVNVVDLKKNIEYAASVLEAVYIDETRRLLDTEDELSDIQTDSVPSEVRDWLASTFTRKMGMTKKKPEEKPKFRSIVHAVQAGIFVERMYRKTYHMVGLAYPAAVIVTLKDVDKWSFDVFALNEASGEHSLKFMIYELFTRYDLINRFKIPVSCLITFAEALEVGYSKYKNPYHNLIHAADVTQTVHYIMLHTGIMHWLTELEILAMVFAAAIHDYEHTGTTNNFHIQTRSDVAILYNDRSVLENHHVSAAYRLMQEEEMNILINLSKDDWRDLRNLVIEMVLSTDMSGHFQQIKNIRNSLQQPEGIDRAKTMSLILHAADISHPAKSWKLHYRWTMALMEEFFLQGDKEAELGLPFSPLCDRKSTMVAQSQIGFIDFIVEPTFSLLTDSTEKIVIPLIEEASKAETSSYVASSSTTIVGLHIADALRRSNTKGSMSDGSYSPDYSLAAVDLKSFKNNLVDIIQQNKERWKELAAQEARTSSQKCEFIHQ

On to `CCCn1ncc2nc(-c3cccnc3OCC)cc(NCc3cnn(C)c3)c21` [Example 13, 5-(2-ethoxy-3-pyridyl)-N-[(1-methylpyrazol-4-yl)methyl]-1-propyl-pyrazolo[4,3-b]pyridin-7-amine], for which the IC50 worked out at 340 nM on PDE1C; 90 nM on PDE1A (setting [1]); 15 nM at PDE1B (read-out: PDE1B, IC50).

`CCOc1ncccc1-c1cc(NCc2cnccc2OC)c2c(n1)c(C)nn2C(C)C` [Example 92, 5-(2-ethoxy-3-pyridyl)-1-isopropyl-N-[(4-methoxy-3-pyridyl)methyl]-3-methyl-pyrazolo[4,3-b]pyridin-7-amine]: the IC50 against PDE1C was 110 nM; against PDE1A (setting [1]), 47 nM; at PDE1B (read-out: PDE1B, IC50) it was 2.7 nM.

Turning to `CCOc1ncccc1-c1cc(NCc2ccnc(OC)c2)c2c(n1)c(C)nn2C(C)C` [Example 104, 5-(2-ethoxy-3-pyridyl)-1-isopropyl-N-[(2-methoxy-4-pyridyl)methyl]-3-methyl-pyrazolo[4,3-b]pyridin-7-amine], the 50% inhibitory concentration (IC50) turned out to be 6.3 nM against PDE1C; 2.2 nM on PDE1A (setting [1]); 0.16 nM at PDE1B (read-out: PDE1B, IC50).

Turning to `CCOc1ncccc1-c1cc(NCc2ccccn2)c2c(n1)c(C)nn2C(C)C` [Example 100, 5-(2-ethoxy-3-pyridyl)-1-isopropyl-3-methyl-N-(2-pyridylmethyl)pyrazolo[4,3-b]pyridin-7-amine], the IC50 came to 21 nM on PDE1C; 6.3 nM against PDE1A (setting [1]); 0.39 nM at PDE1B (read-out: PDE1B, IC50).

On to `CCNc1ncccc1-c1cc(NCc2cnn(C)c2)c2c(n1)c(C)nn2C(C)C` [Example 79, 5-(2-(ethylamino)pyridin-3-yl)-1-isopropyl-3-methyl-N-((1-methyl-1H-pyrazol-4-yl)methyl)-1H-pyrazolo[4,3-b]pyridin-7-amine], for which the IC50 against PDE1C amounted to 260 nM; at PDE1A (setting [1]), 230 nM; on PDE1B (read-out: PDE1B, IC50), 31 nM.

For the molecule `CCOc1ncccc1-c1cc(NCc2c[nH]cn2)c2c(n1)c(C)nn2C(C)C` [Example 40, 5-(2-ethoxy-3-pyridyl)-N-(1H-imidazol-4-ylmethyl)-1-isopropyl-3-methyl-pyrazolo[4,3-b]pyridin-7-amine], the IC50 came out at 32 nM at PDE1C; 14 nM against PDE1A (setting [1]); 1 nM at PDE1B (read-out: PDE1B, IC50).

Turning to `CCOc1ncccc1-c1cc(NCc2cccnc2C(F)(F)F)c2c(n1)c(C)nn2C(C)C` [Example 77, 5-(2-ethoxy-3-pyridyl)-1-isopropyl-3-methyl-N-[[2-(trifluoromethyl)-3-pyridyl]methyl]pyrazolo[4,3-b]pyridin-7-amine], the IC50 on PDE1C was found to be 64 nM; against PDE1A (setting [1]), 21 nM; at PDE1B (read-out: PDE1B, IC50) it was 0.22 nM.

With `CCOc1ncccc1-c1cc(CNc2ncn(C)n2)c2c(n1)c(C)nn2C(C)C` [Example 158, N-[[5-(2-ethoxy-3-pyridyl)-1-isopropyl-3-methyl-pyrazolo[4,3-b]pyridin-7-yl]methyl]-1-methyl-1,2,4-triazol-3-amine], the IC50 was 50 nM on PDE1C; 23 nM against PDE1A (setting [1]); 4.9 nM at PDE1B (read-out: PDE1B, IC50).

As for `COc1ncccc1CNc1cc(-c2cccnc2OC2CC2)nc2c(C)nn(C(C)C)c12` [Example 174, 5-(2-cyclopropoxypyridin-3-yl)-1-isopropyl-N-((2-methoxypyridin-3-yl)methyl)-3-methyl-1H-pyrazolo[4,3-b]pyridin-7-amine], the concentration for half-maximal inhibition (IC50) is 52 nM at PDE1C; 18 nM against PDE1A (setting [1]); 1.5 nM at PDE1B (read-out: PDE1B, IC50).

On to `CCOc1ncccc1-c1cc(NCc2ccccc2F)c2c(n1)c(C)nn2C(C)C` [Example 89, 5-(2-ethoxy-3-pyridyl)-N-[(2-fluorophenyl)methyl]-1-isopropyl-3-methyl-pyrazolo[4,3-b]pyridin-7-amine], for which the half-maximal inhibitory concentration (IC50) at PDE1C was found to be 93 nM; on PDE1A (setting [1]), 61 nM; on PDE1B (read-out: PDE1B, IC50), 1.5 nM.

`Cc1nn(C(C)C)c2c(NCc3cnn(C)c3)cc(-c3cnn(C)c3C)nc12` [Example 66, 5-(1,5-dimethylpyrazol-4-yl)-1-isopropyl-3-methyl-N-[(1-methylpyrazol-4-yl)methyl]pyrazolo[4,3-b]pyridin-7-amine]: the IC50 at PDE1C is 220 nM; against PDE1A (setting [1]), 210 nM; at PDE1B (read-out: PDE1B, IC50), 59 nM.

Take `CCOc1ncccc1-c1cc(NCc2cccnc2C)c2c(n1)c(C)nn2C(C)C` [Example 84, 5-(2-ethoxy-3-pyridyl)-1-isopropyl-3-methyl-N-[(2-methyl-3-pyridyl)methyl]pyrazolo[4,3-b]pyridin-7-amine]: the IC50 turned out to be 23 nM against PDE1C; 19 nM at PDE1A (setting [1]); 1.8 nM on PDE1B (read-out: PDE1B, IC50).

With `CCOc1ncccc1-c1cc(SCc2cnn(C)c2)c2c(n1)c(C)nn2C(C)C` [Example 164, 5-(2-ethoxy-3-pyridyl)-1-isopropyl-3-methyl-7-[(1-methylpyrazol-4-yl)methylsulfanyl]pyrazolo[4,3-b]pyridine], the IC50 at PDE1C came to 25 nM; against PDE1A, 6.8 nM; at PDE1B (PDE1B, IC50 (nM)), 1.6 nM.

Regarding `CCOc1ncccc1-c1cc(NCc2nccs2)c2c(cnn2C(C)C)n1` [Example 20, 5-(2-ethoxy-3-pyridyl)-1-isopropyl-N-(thiazol-2-ylmethyl)pyrazolo[4,3-b]pyridin-7-amine], the concentration for half-maximal inhibition (IC50) on PDE1C is 600 nM; against PDE1A (setting [1]) it was 520 nM; at PDE1B (read-out: PDE1B, IC50), 37 nM.

Take `CCOc1ncccc1-c1cc(NCc2ncc(C)s2)c2c(n1)c(C)nn2C(C)C` [Example 2, 5-(2-ethoxy-3-pyridyl)-1-isopropyl-3-methyl-N-[(5-methylthiazol-2-yl)methyl]pyrazolo[4,3-b]pyridin-7-amine]: the IC50 on PDE1C worked out at 4.9 nM; against PDE1A (setting [1]) it was 0.46 nM; at PDE1B (read-out: PDE1B, IC50), 0.071 nM.

Consider `CCOc1ncccc1-c1cc(NCc2nccc(OC)n2)c2c(n1)c(C)nn2C(C)C` [Example 189, 5-(2-ethoxy-3-pyridyl)-1-isopropyl-N-[(4-methoxypyrimidin-2-yl)methyl]-3-methyl-pyrazolo[4,3-b]pyridin-7-amine], for which the IC50 on PDE1C came out at 19 nM; at PDE1A (setting [1]) it was 3.9 nM; on PDE1B (read-out: PDE1B, IC50) it was 0.49 nM.

For the molecule `CCOc1ncccc1-c1cc(NCc2ccn(C)c(=O)c2)c2c(n1)c(C)nn2C(C)C` [Example 78, 4-[[[5-(2-ethoxy-3-pyridyl)-1-isopropyl-3-methyl-pyrazolo[4,3-b]pyridin-7-yl]amino]methyl]-1-methyl-pyridin-2-one], the IC50 at PDE1C was found to be 44 nM; against PDE1A (setting [1]), 27 nM; on PDE1B (read-out: PDE1B, IC50) it was 3.2 nM.

With `Cc1nn(C(C)C)c2c(NCc3cnn(C)c3)cc(N3CCC3=O)nc12` [Example 152, 1-[1-isopropyl-3-methyl-7-[(1-methylpyrazol-4-yl)methylamino]pyrazolo[4,3-b]pyridin-5-yl]azetidin-2-one], the IC50 at PDE1C was found to be 61 nM; on PDE1A (setting [1]) it was 48 nM; at PDE1B (read-out: PDE1B, IC50), 32 nM.

Take `Cc1nn(C(C)C)c2c(NCc3cnn(C)c3)cc(-c3ccc[nH]c3=O)nc12` [Example 177, 3-[1-isopropyl-3-methyl-7-[(1-methylpyrazol-4-yl)methylamino]pyrazolo[4,3-b]pyridin-5-yl]-1H-pyridin-2-one]: the IC50 at PDE1C worked out at 180 nM; against PDE1A (setting [1]) it was 130 nM; on PDE1B (read-out: PDE1B, IC50), 20 nM.

On to `CCOc1ncccc1-c1cc(NCc2cnn(C)c2)c2c(n1)c(C)nn2C1COC1` [Example 27, 5-(2-ethoxy-3-pyridyl)-3-methyl-N-[(1-methylpyrazol-4-yl)methyl]-1-(oxetan-3-yl)pyrazolo[4,3-b]pyridin-7-amine], for which the IC50 was determined as 170 nM against PDE1C; 94 nM against PDE1A (setting [1]); 6.6 nM at PDE1B (read-out: PDE1B, IC50).

On to `CCOc1ncccc1-c1cc(NCc2ccccc2)c2c(cnn2C(C)C)n1` [Example 41, N-benzyl-5-(2-ethoxy-3-pyridyl)-1-isopropyl-pyrazolo[4,3-b]pyridin-7-amine], for which the IC50 was found to be 500 nM against PDE1C; 500 nM on PDE1A (setting [1]); 45 nM at PDE1B (read-out: PDE1B, IC50).

Take `CCOc1ncccc1-c1cc(NCc2ccn(C)n2)c2c(n1)c(C)nn2C(C)CC` (single isomer, unassigned) [Example 67, 5-(2-ethoxy-3-pyridyl)-3-methyl-1-[1-methylpropyl]-N-[(1-methylpyrazol-3-yl)methyl]pyrazolo[4,3-b]pyridin-7-amine]: the IC50 amounted to 27 nM against PDE1C; 9.6 nM at PDE1A (setting [1]); 0.64 nM against PDE1B (PDE1B, IC50 (nM)).

On to `CCOc1ncccc1-c1cc(NCc2cn[nH]c2)c2c(n1)c(C)nn2C(C)C` [Example 7, 5-(2-ethoxy-3-pyridyl)-1-isopropyl-3-methyl-N-(1H-pyrazol-4-ylmethyl)pyrazolo[4,3-b]pyridin-7-amine], for which the half-inhibitory concentration (IC50) against PDE1C turned out to be 37 nM; on PDE1A (setting [1]), 21 nM; on PDE1B (read-out: PDE1B, IC50), 1.1 nM.

`CCOc1ncccc1-c1cc(NCc2coc(C)n2)c2c(n1)c(C)nn2C(C)C` [Example 37, 5-(2-ethoxy-3-pyridyl)-1-isopropyl-3-methyl-N-[(2-methyloxazol-4-yl)methyl]pyrazolo[4,3-b]pyridin-7-amine]: the IC50 against PDE1C is 18 nM; on PDE1A (setting [1]), 5.9 nM; at PDE1B (read-out: PDE1B, IC50) it was 0.43 nM.

In the case of `CCOc1ncccc1-c1cc(NCc2ccnn2C)c2c(cnn2C(C)C)n1` [Example 18, 5-(2-ethoxypyridin-3-yl)-1-isopropyl-N-((1-methyl-1H-pyrazol-5-yl)methyl)-1H-pyrazolo[4,3-b]pyridin-7-amine], the IC50 against PDE1C was 640 nM; against PDE1A (setting [1]), 450 nM; at PDE1B (read-out: PDE1B, IC50), 73 nM.

In the case of `Cc1nn(C(C)C)c2c(NCc3cnn(C)c3)cc(-c3ncco3)nc12` [Example 168, 1-isopropyl-3-methyl-N-[(1-methylpyrazol-4-yl)methyl]-5-oxazol-2-yl-pyrazolo[4,3-b]pyridin-7-amine], the IC50 against PDE1C worked out at 36 nM; on PDE1A (setting [1]) it was 14 nM; at PDE1B (read-out: PDE1B, IC50) it was 2.6 nM.

Usually IC50 stands for the concentration at which inhibition is half-maximal.
